Source: patent US7879822B2, “Stabilized sulforaphane” (Pharmagra Labs, Inc., priority 2007, dated 2011)

Experiments:
[1] = Extended stability study of stabilized sulforaphane compositions by HPLC (Example 2); type: physicochemical; settings: stored in a freezer
Description: The sulforaphane formulations were analyzed via HPLC (UV detection at 254 nm) using an internal standard (DEET) method. A sulforaphane standard (stored in a freezer) was used to determine the response factor for each analysis.
A ca. 300 mg (carefully weighed) formulation sample was dissolved in 8 mL of internal standard solution (DEET in DMF, ca 2 mg/mL). The amount of ISTD solution was also carefully weighed. The sample was further diluted with 8 mL of nitrogen sparged DI water. The samples were sonicated for ˜10 minutes and filtered through a 0.45 μm nylon filter. The samples were then analyzed by HPLC UV detection at 254 nm.
Chromatographic Conditions: • Column: Agilent Eclipse XDB-C18, 5 μm, 250×4.6 mm, […] @ 30° C. • Solvent A: 0.1% Formic acid in H2O • Solvent B: MeCN • Gradient: 5% to 100% Solvent B in Solvent A over 30 minutes • Flow: 1.5 mL/minute • Detector: UV 254 nm, ESI-MS (pos/neg) for confirmation • Retention Times: Sulforaphane: 9.2 minutes DEET: 15.5 minutes
Analysis Results: The results are presented as percent of the “time zero” load versus time.

[2] = Stability analysis of sulforaphane-cyclodextrin formulations by HPLC (Example 1); type: physicochemical; settings: stored in a freezer
Description: Analysis Overview: The sulforaphane formulations were analyzed via HPLC (UV detection at 254 nm) using an internal standard (DEET) method. An assumption is made that the sulforaphane completely disassociates from the cyclodextrin under the chromatographic conditions. A sulforaphane standard (stored in a freezer) is used to determine the response factor for each analysis.
Storage Conditions: The samples were stored under three conditions: Capped and at room temperature, capped and stored in the freezer (−30° C.), and open and stored in a 40° C. oven. These samples were analyzed for sulforaphane load over time. The stabilization of the different samples and different storage conditions may be seen in FIGS. 3-5.
Sample Preparation Example: A 20 mg to 50 mg (carefully weighed) formulation sample is dissolved in 1 mL of internal standard solution (DEET in DMF). The amount of ISTD solution is also carefully weighed. The sample is further diluted with 1 mL of nitrogen sparged deionized water. The samples are sonicated for approximately ten minutes and filtered through ha 0.45 μm nylon filter. The samples are then analyzed by HPLC UV detection at 254 nm.
Analysis Results: The results are presented as percent of theoretical load versus time (The calculation for theoretical was described above.)

stability of the standard (HPLC response factor over all analyses) [1]: stable
stability of the standard (HPLC response factor over all analyses) [2]: stable
Structure (SMILES): C[S+]([O-])CCCCN=C=S (racemic) [sulforaphane]
